# Laboratory results as given in patent US20080027010A1, “Treatment of refractory cancers using Na+/K+-ATPase inhibitors” (Bionaut Pharmaceuticals, Inc., priority 2004, published 2008).
# “Also recorded” adds a separate entry of the source.
# Key:
# VEGF = VEGF secretion in tumor cells; assay type: cell-based; details: FIG. 8
# [1] = tested on: several different cancer cell lines; assay: Proliferation of several different cancer cell lines; assay type: cell-based
# Na/K-ATPase = details: cited from earlier work
# HIF-1α [2] = assay: HIF-1α Western blot in human tumor cells under hypoxia; assay type: cell-based
# Method: For HIF1-alpha Western blots, Hep3B cells were seeded in growth medium at a density of 7×10^6 cells per 100 mm dish. […] Samples were fractionated on 3-8% Tris-Acetate gel (Invitrogen NUPAGE system) by sodium dodecyl sulfate (SDS)-polyacrylamide gel electropherosis and transferred onto nitrocellulose membrane. […] Anti-Beta-actin monoclonal antibody (Abcam, ab6276-100) was used at a 1:5000 dilution with a 30-minute incubation at room temperature.
# The cells were placed in hypoxic conditions for 4 hours for HIF1-alpha accumulation.
# The cells were lysed and proteins were resolved by SDS-PAGE and transferred to a nylon membrane. The membrane was immunoblotted with anti-HIF-1α and anti-HIF1β MAb, and anti-beta-actin antibodies.
# HIF-1α and β-actin protein level was determined by western blotting.
# HIF-1α [3] = assay: HIF-1α induced under normoxia by PHD inhibitor L-mimosone in Hep3B cells, Western blot; assay type: cell-based, human
# Method: Abundance of HIF-1α and β-actin was determined by western blotting.
# [4] = tested on: Panc-1 human pancreatic xenograft; assay: Panc-1 human pancreatic tumor xenograft in nude mice; assay type: in vivo; details: Panc-1 xenografts in nude mice; FIGS. 16, 17, 22
# Method: The control animals received pumps containing vehicle (50% DMSO in DMEM). The mice treated with standard chemotherapy agent received intra-peritoneal injections of Gemcitabine at 40 mg/kg every 3 days for 4 treatments (q3d×4). Each data point represent average tumor weight (n=8) and error bars indicate SEM.
# [5] = tested on: Caki-1 human renal cancer xenograft; assay type: in vivo; details: xenografted Caki-1 human renal tumors in nude mice; FIG. 23
# Excerpt: Female nude mice (nu/nu) between 5 and 6 weeks of age weighing approximately 20 g were implanted subcutaneously (s.c.) by trocar with fragments of human tumors harvested from s.c. grown tumors in nude mice hosts. […] Each group contains 8-10 mice, each of which was ear tagged and followed throughout the experiment.
# The administration of drugs or controls began the day the animals were pair-matched (Day 1). […] Mice were weighed and tumor measurements were obtained using calipers twice weekly, starting Day 1. These tumor measurements were converted to mg tumor weight by standard formula, (W^2×L)/2. The experiment is terminated when the control group tumor size reached an average of about 1 gram. Upon termination, the mice were weighed, sacrificed and their tumors excised. The tumors were weighed and the mean tumor weight per group was calculated.
# [6] = mice
# [7] = cited from earlier work
# [8] = cited from earlier work; remark: listed apart in the source
# A549 Sentinel Line = assay: Sentinel Line beta-galactosidase reporter assay (FACS, FDG loading); assay type: cell-based, human; details: 40 hrs; mitoxantrone 8 nM, paclitaxel 1.5 nM, carboplatin 15 μM, Iressa 4 μM
# Method: The expression level of beta-galactosidase gene in sentinel lines was determined by using a fluorescent substrate fluorescein di-β-D-Galactopyranside (FDG, Marker Gene Tech, #M0250) introduced into cells by hypotonic shock. Cleavage by beta-galactosidase results in the production of free fluorescein, which is unable to cross the plasma membrane and is trapped inside the beta-gal positive cells. Briefly, the cells to be analyzed are trypsinized, and resuspended in PBS containing 2 mM FDG (diluted from a 10 mM stock prepared in 8:1:1 mixture of water:ethanol:DMSO). The cells were then shocked for 4 minutes at 37° C. and transferred to FACS tubes containing cold 1×PBS on ice. Samples were kept on ice for 30 minutes and analyzed by FACS in FL1 channel.
# Sentinel Line cells with beta-galactosidase reporter gene were plated at 1×10^5 cells/10 cm dish. […] After 40 hrs, the cells were trypsinized and the expression level of reporter gene was determined by FDG loading.
# The reporter activity was measured by FACS analysis.
smiles,measurement,setting,value
"C[C@@H]1O[C@@H](O[C@H]2C[C@@H](O)[C@]3(CO)[C@H]4[C@H](O)C[C@]5(C)[C@@H](C6=CC(=O)OC6)CC[C@]5(O)[C@@H]4CC[C@]3(O)C2)[C@H](O)[C@H](O)[C@H]1O [BNC-1, ouabain]",secretion of the angiogenesis factor VEGF,VEGF,directly or indirectly inhibits
same,decrease of concentration effective for inhibiting proliferation of cancer cells,[1]; combination with steroid signal modulator (Casodex),5 fold
same,IC50,"[1]; proliferation of cancer cell lines, read-out: IC50 across several different cancer cell lines",80 to 300 nM
same,order of Na/K-ATPase-inhibition,Na/K-ATPase,Ouabain<Digoxin<Proscillaridin
"C[C@@H]1OC(OC2C=C3CCC4C(CC[C@]5(C)[C@@H](c6ccc(=O)oc6)CC[C@]45O)[C@@]3(C)CC2)[C@H](O)[C@H](O)[C@H]1O (stereo partly drawn) [BNC-4, proscillaridin]",HIF-1α expression,HIF-1α [2]; 0.1 μM,completely inhibits HIF-1α expression
same,HIF-1α expression,HIF-1α [2]; 1 μM,completely inhibits HIF-1α expression
same,HIF-1α accumulation,HIF-1α [3]; 200 μM L-mimosone for 18 h,blocks HIF-1α induction; also recorded: eliminated HIF-1α accumulation
same,HIF-1α accumulation,"HIF-1α [3]; L-mimosone, low concentration tested",did not appear to have an effect
same,secretion of the angiogenesis factor VEGF,VEGF,directly or indirectly inhibits
same,tumor growth,[4],significantly reduce tumor growth
same,tumor growth,[5],significantly reduce tumor growth
same,serum level corresponding to maximum toxic dose (MTD),[6],about 518 (±121) ng/ml
same,toxic serum concentration at day 1,[6]; steady state delivery,about 518±121 ng/ml
same,order of Na/K-ATPase-inhibition,Na/K-ATPase,Ouabain<Digoxin<Proscillaridin
same,time of third plasma concentration peak,[7]; after dosing,about 10 hours
same,influence of impaired kidney function on clearance,[7]; in vivo,no influence on clearance
same,patients taken off treatment because of negative side effects,[8]; 1067 patients observed for up to 3 years,0.7%
same,doses producing typical cardiac glycoside intoxication symptoms,[8]; healthy individuals,above 4 mg p.o./d
same,"average level of side effects (nausea, seasickness, headache, vomiting, stomach cramps, diarrhea) in clinical reports","[8]; human, in vivo",5%
same,dose taken without any negative side effects,[8]; long-term medication of cardiac illnesses,up to 1.5 mg per day
same,reported cases in which therapy could be resumed after a brief hiatus,[8]; review of 47 clinical studies,> 95%
C[C@@H]1OC(OC2C=C3CCC4C5=CC[C@H](c6ccc(=O)oc6)[C@@]5(C)CCC4[C@@]3(C)CC2)[C@H](O)[C@H](O)[C@H]1O (stereo partly drawn) [BNC-151],HIF-1α expression,HIF-1α [2]; 1 μM,Significant inhibition of HIF-1α expression
N.N.O=C([O-])C1(C(=O)[O-])CCC1.[Pt+2] [Carboplatin],cell death and reporter activity in Sentinel Lines,A549 Sentinel Line,increases in cell death and reporter activity
C[C@H]1O[C@@H](O[C@H]2[C@@H](O)C[C@H](O[C@H]3[C@@H](O)C[C@H](O[C@H]4CC[C@@]5(C)[C@H](CC[C@@H]6[C@@H]5C[C@@H](O)[C@]5(C)[C@@H](C7=CC(=O)OC7)CC[C@]65O)C4)O[C@@H]3C)O[C@@H]2C)C[C@H](O)[C@@H]1O [Digoxin],order of Na/K-ATPase-inhibition,Na/K-ATPase,Ouabain<Digoxin<Proscillaridin
COc1cc2ncnc(Nc3ccc(F)c(Cl)c3)c2cc1OCCCN1CCOCC1 [Iressa],cell death and reporter activity in Sentinel Lines,A549 Sentinel Line,reduction in reporter activity
"O=C1c2c(O)ccc(O)c2C(=O)c2c(NCCNCCO)ccc(NCCNCCO)c21 [mitoxanthrone, mitoxantrone]",cell death and reporter activity in Sentinel Lines,A549 Sentinel Line,increases in cell death and reporter activity
CC(=O)O[C@H]1C(=O)[C@@]2(C)[C@H]([C@H](OC(=O)c3ccccc3)[C@]3(O)C[C@H](OC(=O)[C@H](O)[C@@H](NC(=O)c4ccccc4)c4ccccc4)C(C)=C1C3(C)C)[C@]1(OC(C)=O)CO[C@@H]1C[C@@H]2O [paclitaxel],cell death and reporter activity in Sentinel Lines,A549 Sentinel Line,increases in cell death and reporter activity
